Source: ChEMBL document CHEMBL1201862, “PubChem BioAssay data set” (2004)
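Method: 48-hour compound exposure of cells in 96-well plates, five concentrations, linear interpolation of endpoints. GI50 marks 50% less growth.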 The source made the active and inactive calls. Rule as the data show it: active = GI50 up to about 1.1 µM and inactive = higher.

Key:
Assay in all cases: DTP human tumour cell line panel, 48 h
[1] = system: HCC 2998
[2] = system: OVCAR-8
[3] = system: SK-MEL-2
[4] = system: KM12
[5] = system: SW-620
[6] = system: SF-295
[7] = system: OVCAR-3
[8] = system: HOP-92
[9] = system: SK-MEL-5
[10] = system: HL-60
[11] = system: RXF 393
[12] = system: HCT-116
[13] = system: NCI-H23
[14] = system: CAKI-1
[15] = system: M14
[16] = system: UACC-62
[17] = system: SR

Measured: GI50

CCOC(=O)C1(C(=O)OCC)OC(=O)NC2=C1CCCC2
inactive: [1] > 100 µM | [2] > 100 µM | [3] > 100 µM | [4] > 100 µM | [5] > 100 µM | [6] > 100 µM | [7] > 100 µM | [8] > 100 µM | [9] > 100 µM | [10] > 100 µM | [11] > 100 µM | [12] > 100 µM | [13] > 100 µM

CC(=O)Nc1ccccc1Sc1ccccc1
inactive: [1] > 100 µM | [2] > 100 µM | [3] > 100 µM | [14] 69.8 µM | [4] > 100 µM | [5] > 100 µM | [6] > 100 µM | [7] 2.6 µM | [8] 69.8 µM | [9] > 100 µM | [15] > 100 µM | [16] > 100 µM | [10] > 100 µM | [11] 74.5 µM | [12] > 100 µM | [13] > 100 µM

CC1SC2=NC3=C(c4ccccc4C3=O)C(c3ccc(Br)cc3)N2C1=O (configuration not stated)
inactive: [1] 60.8 µM | [2] 47.3 µM | [3] 48.1 µM | [14] 80.9 µM | [4] > 100 µM | [5] 51.9 µM | [6] 56.9 µM | [7] 37.2 µM | [8] 29 µM | [9] 41.2 µM | [15] 96.4 µM | [16] 30.6 µM | [10] 22.4 µM | [13] 40.8 µM

O=Cc1ccc2c(c1-c1c(C=O)ccc3c1OCO3)OCO2
inactive: [1] > 100 µM | [17] > 100 µM | [2] > 100 µM | [3] > 100 µM | [14] > 100 µM | [4] > 100 µM | [5] > 100 µM | [6] > 100 µM | [7] > 100 µM | [9] > 100 µM | [15] > 100 µM | [16] > 100 µM | [10] > 100 µM | [12] > 100 µM | [13] > 100 µM

O=[N+]([O-])c1nccn1CC(O)c1ccc(F)cc1 (configuration not stated)
inactive: [2] > 100 µM | [3] > 100 µM | [14] > 100 µM | [4] > 100 µM | [5] > 100 µM | [6] > 100 µM | [7] > 100 µM | [8] > 100 µM | [9] > 100 µM | [15] > 100 µM | [16] > 100 µM | [10] > 100 µM | [11] > 100 µM | [13] > 100 µM

Cn1c(=O)nc2n(-c3cccc(Br)c3)c3ccccc3nc-2c1=O
inactive: [1] 2.59 µM | [2] 3.56 µM | [3] 5.06 µM | [14] 12.3 µM | [4] 4.8 µM | [5] 2.61 µM | [6] 5.73 µM | [7] 2.38 µM | [9] 1.75 µM | [15] 2.81 µM | [16] 1.63 µM | [10] 2.54 µM | [11] 11.5 µM | [12] 4.35 µM | [13] 1.61 µM

CCCCCN(CCCCC)C(=O)[C@@H](CCC(=O)OCc1ccccc1)NC(=O)c1cc2ccccc2[nH]1
inactive: [1] > 100 µM | [2] 6.15 µM | [3] > 100 µM | [14] 8.81 µM | [4] 7.67 µM | [5] > 100 µM | [6] > 100 µM | [7] > 100 µM | [8] > 100 µM | [15] > 100 µM | [16] 6.78 µM | [11] > 100 µM | [12] > 100 µM | [13] > 100 µM

C#CCC(N)(CO)C(=O)O (configuration not stated)
inactive: [1] > 100 µM | [17] > 100 µM | [2] > 100 µM | [3] > 100 µM | [14] > 100 µM | [4] > 100 µM | [5] > 100 µM | [6] > 100 µM | [7] > 100 µM | [8] > 100 µM | [9] > 100 µM | [15] > 100 µM | [16] > 100 µM | [10] > 100 µM | [12] > 100 µM | [13] > 100 µM

OC12CCCCCC1(N1CCOCC1)c1ccccc12 (configuration not stated)
inactive: [1] > 100 µM | [2] > 100 µM | [3] > 100 µM | [14] > 100 µM | [4] > 100 µM | [5] > 100 µM | [6] > 100 µM | [7] > 100 µM | [9] > 100 µM | [15] > 100 µM | [16] > 100 µM | [10] > 100 µM | [11] > 100 µM | [12] > 100 µM | [13] > 100 µM
